Results: patent US10391095B2, “DNA-PK inhibitors” (Vertex Pharmaceuticals Incorporated, priority 2012, dated 2019)

Target: DNA-PK (Homo sapiens, UniProt P78527)
Experiment: DNA-PK inhibition assay (radiometric, 33P-ATP)
Type: biochemical
Conditions: 100 μM ATP, competitive tight-binding fit
Summary of the method: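 33P transfer from 100 µM ATP to a DNA-PK peptide (0.8 mg/mL) is measured after 45 min, using about 6 nM enzyme activated by 10 µg/mL sheared dsDNA (HEPES pH 7.5, MgCl2, DTT). Filter-bound counts fitted to a competitive tight-binding inhibition model give Ki.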

Compound | Ki [nM]
CNC(=O)c1ccc(C(C)CNc2cc(-c3ccc4c(cnn4CCO)c3C)ncn2)c(OC)c1 (centres unmarked) [Compound 277] | < 30
CNC(=O)c1c(F)cnc2c([C@H](C)CNc3cc(-c4ccc(C(O)C(C)C)nc4)ncn3)cccc12 (some centres unmarked) [Compound 927] | < 30
CNC(=O)c1c(F)cnc2c([C@H](C)CNc3cc(-c4ccc(OC)nc4)ncn3)cccc12 [Compound 900] | < 30
COc1ccccc1[C@H](C)CNc1cc(-c2ccc(C)nc2)ncn1 [Compound 55] | < 30
CNC(=O)c1ccnc2c([C@H](C)CNc3cc(-c4ccc(NCc5cocn5)nc4)ncn3)cccc12 [Compound 712] | < 30
CNC(=O)c1ccc(C(C)CNc2cc(-c3ccc4c(c3)c(C)nn4C3COC3)ncn2)c(OC)c1 (centres unmarked) [Compound 279] | < 30
[2H]c1nc(C)nc([2H])c1-c1cc(NC[C@@H](C)c2ccc(F)c3c(C(=O)NC)ccnc23)ncn1 [Compound 861] | < 30
[2H]C([2H])([2H])NC(=O)c1ccnc2c([C@H](C)CNc3cc(-c4ccc(C)nc4)ncn3)cccc12 [Compound 549] | < 30
CNC(=O)c1ccc([C@H](C)CNc2cc(-c3ccc(NCCN(C)C)nc3)ncn2)c(OC)c1 [Compound 369] | < 30
CNC(=O)c1ccc([C@H](C)CNc2cc(-c3ccc(NC4CC4)nc3)ncn2)c(OC)c1 [Compound 388] | < 30
CNC(=O)c1cc(OC)c(C(C)CNc2cc(-c3ccc(C)nc3)ncn2)cn1 (centres unmarked) [Compound 376] | < 30
[2H]c1nc(NC[C@@H](C)c2cccc3c(C(=O)NC)ccnc23)cc(-c2ccc(C)nc2)n1 [Compound 604] | < 30
CNC(=O)c1ccc(C(C)CNc2cc(-c3cnc4c(cnn4CCC#N)c3)ncn2)c(OC)c1 (centres unmarked) [Compound 442] | < 30
CNC(=O)c1ccnc2c([C@H](C)CNc3cc(-c4ccc(O)cc4)ncn3)cccc12 [Compound 685] | < 30
CCOc1ccccc1C(C)CNc1cc(-c2ccc(C)nc2)ncn1 (centres unmarked) [Compound 91] | < 30
CCCn1ccc2cc(-c3cc(NCCc4ccccc4OC)ncn3)cnc21 [Compound 36] | < 30
CNC(=O)c1ccc([C@H](C)CNc2cc(-c3ccc(NC)nc3)ncn2)c(OC)c1 [Compound 358] | < 30
CNC(=O)c1ccc([C@H](C)CNc2cc(-c3ccc(N4CCOCC4)nc3)ncn2)c(OC)c1 [Compound 367] | < 30
CNC(=O)c1ccc(-c2cc(NC[C@@H](C)c3cccc4c(C(=O)NC)ccnc34)ncn2)cc1 [Compound 754] | < 30
COc1ccccc1[C@H](C)CNc1cc(-c2cnc3c(cnn3C3COC3)c2)ncn1 [Compound 179] | < 30
COc1ccccc1CCNc1cc(-c2cnc3c(ccn3C)c2)ncn1 [Compound 34] | < 30
Cc1ccc(-c2cc(NC[C@@H](C)c3ccnc4c3OCCN4)ncn2)cn1 [Compound 660] | < 30
CNC(=O)c1c(OC)cnc2c([C@H](C)CNc3cc(-c4ccc(C)nc4)ncn3)cccc12 [Compound 762] | < 30
CNC(=O)c1ccnc2c([C@H](C)CNc3cc(-c4ccc(OC)c(F)c4)ncn3)cccc12 [Compound 823] | < 30
COc1ncc(-c2cc(NC[C@@H](C)c3ccnc4c3OCCO4)ncn2)cc1N [Compound 519] | < 30
[2H]c1nc(C)nc([2H])c1-c1cc(NC[C@@H](C)c2cccc3c(C(=O)NC)ccnc23)ncn1 [Compound 844, (S)—N-methyl-8-(1-((2′-methyl-4′,6′-dideutero-[4,5′-bipyrimidin]-6-yl)amino)propan-2-yl)quinoline-4-carboxamide] | < 30
CNC(=O)c1ccnc2c([C@H](C)CNc3cc(-c4cnc(OC)c(Cl)c4)ncn3)cccc12 [Compound 949] | < 30
CNC(=O)c1ccnc2c([C@H](C)CNc3cc(-c4ccc(NCCCO)nc4)ncn3)cccc12 [Compound 715] | < 30
CNC(=O)c1ncnc2c([C@H](C)CNc3cc(-c4ccc(C)nc4)ncn3)cccc12 [Compound 971, (S)—N-methyl-8-(1-((6-(6-methylpyridin-3-yl)pyrimidin-4-yl)amino)propan-2-yl)quinazoline-4-carboxamide] | < 30
